Data on 59 compounds can be found in US4348393A, “N-Aryl oxazolidinones, oxazolidinethiones, pyrrolidinones, pyrrolidines and thiazolidinones” (Delalande S.A., priority 1978, dated 1982).

Assay [1] deals with ptosis observed one hour after reserpine. As to the kind of experiment: Test B: antagonism of reserpine-induced ptosis in mice. It counts as in vivo. The settings on record: Mus musculus, 1 h, po, antagonism of ptosis one hour after reserpine 2 mg/kg intravenous, read-out: Test B ED 50. The method, then:
Test B: Antagonism with respect to the ptosis observed one hour after an intravenous injection (2 mg/kg) of reserpine given to mice, following the protocol described by C.

In assay [2] the test system is generalized trembling caused by dl-5-hydroxytryptophane. In words: Test A: potentiation in mice of generalized trembling caused by dl-5-hydroxytryptophane. The conditions noted are these: Mus musculus, po, mice, potentiation of trembling by dl-5-hydroxytryptophane 200 mg/kg interperitoneal, read-out: Test A ED 50. It counts as in vivo. How it is done:
Test A: Potentiation in mice of generalized trembling caused by an interperitoneal injection (200 mg/kg) of dl-5-hydroxytryptophane, following the protocol described by C. GOURET and G. RAYNAUD in J. Pharmacol. (Paris), (1974), 5, 231.

Consider `COCC1CN(c2ccc(/C=C\c3cccc([N+](=O)[O-])c3)cc2)C(=O)O1` (stereo not shown) [compound 194], for which the results for the ED50 in assay [1] and in assay [2] were 5.8 mg/kg and 6.4 mg/kg, respectively.

For `COCC1CN(c2ccc(OCC(C)=O)cc2)C(=O)O1` (stereo not shown) [compound 151], the ED50 is 5 mg/kg in assay [1] and 5.2 mg/kg in assay [2].

In the case of `COCC1CN(c2ccc(OCc3cccc(C(F)(F)F)c3)cc2)C(=O)O1` (stereo not shown) [compound 66], the ED50 in assay [1] came out at 6 mg/kg; in assay [2], 4.7 mg/kg.

On to `COCOCC1CN(c2ccc(OCc3cccc([N+](=O)[O-])c3)cc2)C(=O)O1` (stereo not shown) [compound 73], for which the figures for the ED50 in assay [1] and in assay [2] were 0.8 mg/kg and 0.6 mg/kg, respectively.

`CCCCCCCCC(=O)OCC1CN(c2ccc(OCC3CCCC3)cc2)C(=O)O1` (stereo not shown) [compound 19]: the values for the ED50 in assay [1] and in assay [2] were 3.5 mg/kg and 5.5 mg/kg, respectively.

Take `CC(C)(C)C(=O)OCC1CN(c2ccc(OCC3CCCC3)cc2)C(=O)O1` (stereo not shown) [compound 17]: the figures for the ED50 in assay [1] and in assay [2] were 3.6 mg/kg and 4.8 mg/kg, respectively.

`CCCCCCCCC(=O)OCC1CN(c2ccc(OCc3cccc(Cl)c3)cc2)C(=O)O1` (stereo not shown) [compound 35]: the values for the ED50 in assay [1] and in assay [2] were 6.5 mg/kg and 19 mg/kg, respectively.

Regarding `CNCC1CN(c2ccc(OCc3ccc(F)cc3)cc2)C(=O)O1` (stereo not shown) [compound 175], the ED50 came to 9.6 mg/kg in assay [1] and 5.8 mg/kg in assay [2].

Consider `CC(=O)OCC1CN(c2ccc(OCC3CCCCC3)cc2)C(=O)O1` (stereo not shown) [compound 21], for which the ED50 was 3.5 mg/kg in assay [1] and 2.1 mg/kg in assay [2].

`O=C(OCC1CN(c2ccc(OCc3ccccc3)cc2)C(=O)O1)c1ccccc1` (stereo not shown) [compound 29]: the ED50 in assay [1] came to 50 mg/kg; in assay [2] it was 45 mg/kg.

Turning to `O=C(OCC1CN(c2ccc(OCC3CCCC3)cc2)C(=O)O1)C1CCCCC1` (stereo not shown) [compound 18], the ED50 in assay [1] was 4.25 mg/kg; in assay [2] it was 4 mg/kg.

Consider `OCC1CN(c2ccc(OCc3cccc(C(F)(F)F)c3)cc2)C(=S)O1` (stereo not shown) [compound 98], for which the ED50 in assay [1] and in assay [2] was 12.5 mg/kg each time.

As to `CCCCOc1ccc(N2CC(COCC)OC2=O)cc1` (stereo not shown) [compound 109], the ED50 in assay [1] was 1 mg/kg; in assay [2], 10 mg/kg.

For the compound `COCC1CN(c2ccc(OCc3ccc([N+](=O)[O-])cc3)cc2)C(=O)O1` (stereo not shown) [compound 165], the figures for the ED50 in assay [1] and in assay [2] were 4.7 mg/kg and 6.8 mg/kg, respectively.

`CCCCOc1ccc(N2CC(CN)OC2=O)cc1` (stereo not shown) [compound 170]: the ED50 in assay [1] is 16 mg/kg; in assay [2] it was 12.5 mg/kg.

Regarding `COCC1CN(c2ccc(OCCCCC#N)cc2)C(=S)O1` (stereo not shown) [compound 217], the ED50 in assay [1] and in assay [2] was 1 mg/kg in each case.

Regarding `N#CCOc1ccc(N2CC(CO)OC2=S)cc1` (stereo not shown) [compound 92], the ED50 in assay [1] worked out at 50 mg/kg; in assay [2], 30 mg/kg.

With `COCC1CN(c2ccc(OCc3ccc(F)c(C#N)c3)cc2)C(=O)O1` (stereo not shown) [compound 162], the results for the ED50 in assay [1] and in assay [2] were 1.55 mg/kg and 0.54 mg/kg, respectively.

As to `CC(C)C(=O)OCC1CN(c2ccc(OCC3CCCC3)cc2)C(=O)O1` (stereo not shown) [compound 15], the ED50 was found to be 2 mg/kg in assay [1] and 2.2 mg/kg in assay [2].

Regarding `N#CCCOc1ccc(N2CC(COC(=O)C3CCCCC3)OC2=O)cc1` (stereo not shown) [compound 8], the ED50 in assay [1] amounted to 7.2 mg/kg; in assay [2] it was 2.2 mg/kg.

Take `N#CCCOc1ccc(N2CC(COC(=O)c3ccccc3)OC2=O)cc1` (stereo not shown) [compound 10]: the figures for the ED50 in assay [1] and in assay [2] were 5.8 mg/kg and 2.4 mg/kg, respectively.

`CCCOCC1CN(c2ccc(OCCC#N)cc2)C(=O)O1` (stereo not shown) [compound 145]: the figures for the ED50 in assay [1] and in assay [2] were 12 mg/kg and 8.5 mg/kg, respectively.

With `COCC1CN(c2ccc(OCC3CCCCCC3)cc2)C(=O)O1` (stereo not shown) [compound 150], the ED50 in assay [1] came out at 0.5 mg/kg; in assay [2], 0.7 mg/kg.

As for `COCC1CN(c2cccc(C)c2)C(=O)O1` (stereo not shown) [compound 45], the ED50 amounted to 50 mg/kg in assay [1] and 45 mg/kg in assay [2].

Take `CCCCC(=O)OCC1CN(c2ccc(OCc3cccc(Cl)c3)cc2)C(=O)O1` (stereo not shown) [compound 33]: the values for the ED50 in assay [1] and in assay [2] were 4.5 mg/kg and 9.4 mg/kg, respectively.

Take `CN(C)CC1CN(c2ccc(OCCC#N)cc2)C(=O)O1` (stereo not shown) [compound 171]: the ED50 worked out at 25 mg/kg in assay [1] and 19.5 mg/kg in assay [2].

As for `COCC1CN(c2ccc(OCc3cccc(C#N)c3)cc2)C(=O)O1` (stereo not shown) [compound 65], the ED50 in assay [1] was 0.75 mg/kg; in assay [2] it was 0.28 mg/kg.

Take `CC(C)COCC1CN(c2ccc(OCc3cccc([N+](=O)[O-])c3)cc2)C(=O)O1` (stereo not shown) [compound 157]: the ED50 in assay [1] was found to be 6.2 mg/kg; in assay [2] it was 4.7 mg/kg.

With `CC(=O)OCC1CN(c2ccc(OCc3cccc(F)c3)cc2)C(=O)O1` (stereo not shown) [compound 130], the values for the ED50 in assay [1] and in assay [2] were 9.6 mg/kg and 6.2 mg/kg, respectively.

Turning to `CC(C)CCOc1ccc(N2CC(CN)OC2=O)cc1` (stereo not shown) [compound 174], the values for the ED50 in assay [1] and in assay [2] were 3.5 mg/kg and 3 mg/kg, respectively.

On to `CNCC1CN(c2ccc(OCc3cccc(Cl)c3)cc2)C(=O)O1` (stereo not shown) [compound 83], for which the ED50 is 6.2 mg/kg in assay [1] and 12.5 mg/kg in assay [2].

As for `CCC(=O)OCC1CN(c2ccc(OCC#N)cc2)C(=O)O1` (stereo not shown) [compound 2], the ED50 was 8 mg/kg in assay [1] and 12.5 mg/kg in assay [2].

`CCCCOc1ccc(N2CC(COCCC)OC2=O)cc1` (stereo not shown) [compound 142]: the figures for the ED50 in assay [1] and in assay [2] were 17.5 mg/kg and 18 mg/kg, respectively.

In the case of `CCCCCCCCC(=O)OCC1CN(c2ccc(OCc3cccc(F)c3)cc2)C(=O)O1` (stereo not shown) [compound 131], the ED50 in assay [1] was 31 mg/kg; in assay [2], 12 mg/kg.

For `CC(=O)OCC1CN(c2ccc(OCc3cccc([N+](=O)[O-])c3)cc2)C(=O)O1` (stereo not shown) [compound 36, Para (meta-nitrobenzyloxy) phenyl-3 acetoxy-methyl-5 oxazolidinone-2], the results for the ED50 in assay [1] and in assay [2] were 1.5 mg/kg and 1.7 mg/kg, respectively.

Consider `COCC1CN(c2ccc(/C=C\c3ccccc3)cc2)C(=O)O1` (stereo not shown) [compound 193], for which the ED50 was determined as 30 mg/kg in assay [1] and 19 mg/kg in assay [2].

For the compound `CC(C)CCOc1ccc(N2CC(COC(=O)C(C)(C)C)OC2=O)cc1` (stereo not shown) [compound 125], the figures for the ED50 in assay [1] and in assay [2] were 3.5 mg/kg and 5 mg/kg, respectively.

Consider `OCC1CN(c2ccc(OCc3cccc(F)c3)cc2)C(=S)O1` (stereo not shown) [compound 177], for which the ED50 in assay [1] is 15.5 mg/kg; in assay [2], 8 mg/kg.

Turning to `COCC1CN(c2ccc(OCc3cccc(C#N)c3)cc2)C(=S)O1` (stereo not shown) [compound 116], the ED50 was 0.95 mg/kg in assay [1] and 1.6 mg/kg in assay [2].

In the case of `CCCOCC1CN(c2ccc(OCC3CCCC3)cc2)C(=O)O1` (stereo not shown) [compound 143], the ED50 in assay [1] stood at 12 mg/kg; in assay [2], 12.5 mg/kg.

Turning to `CC(C)C(=O)OCC1CN(c2ccc(OCC3CCCCC3)cc2)C(=O)O1` (stereo not shown) [compound 103], the ED50 came to 6 mg/kg in assay [1] and 5 mg/kg in assay [2].

As to `CCCCC(=O)OCC1CN(c2ccc(OCCC(C)C)cc2)C(=O)O1` (stereo not shown) [compound 128], the values for the ED50 in assay [1] and in assay [2] were 4.8 mg/kg and 7.2 mg/kg, respectively.

On to `CCCCCCCCC(=O)OCC1CN(c2ccc(OCc3ccccc3)cc2)C(=O)O1` (stereo not shown) [compound 28], for which the ED50 in assay [1] amounted to 20 mg/kg; in assay [2], 32 mg/kg.

`O=C(OCC1CN(c2ccc(OCC3CCCC3)cc2)C(=O)O1)c1ccccc1` (stereo not shown) [compound 20]: the ED50 in assay [1] is 3.7 mg/kg; in assay [2] it was 8.8 mg/kg.

For the compound `OCC1CN(c2ccc(OCc3ccc(Cl)cc3)cc2)C(=S)O1` (stereo not shown) [compound 95], the values for the ED50 in assay [1] and in assay [2] were 35 mg/kg and 50 mg/kg, respectively.

Turning to `CCCCC(=O)OCC1CN(c2ccc(OCc3cccc([N+](=O)[O-])c3)cc2)C(=O)O1` (stereo not shown) [compound 39], the ED50 stood at 1.6 mg/kg in assay [1] and 1.75 mg/kg in assay [2].

As to `O=C(OCC1CN(c2ccc(OCC3CCCCC3)cc2)C(=O)O1)C1CCCCC1` (stereo not shown) [compound 121], the ED50 is 8 mg/kg in assay [1] and 11 mg/kg in assay [2].

Regarding `NCC1CN(c2ccc(OCC3CCCC3)cc2)C(=O)O1` (stereo not shown) [compound 76], the ED50 in assay [1] was determined as 6.2 mg/kg; in assay [2], 2.1 mg/kg.

Take `CCOc1ccc(N2CC(CO)OC2=S)cc1` (stereo not shown) [compound 87, para ethoxyphenyl-3 hydroxymethyl-5 oxazolidine thione-2]: the ED50 in assay [1] is 44 mg/kg; in assay [2], 29 mg/kg.

Consider `C#CCOCC1CN(c2ccc(OCc3cccc([N+](=O)[O-])c3)cc2)C(=O)O1` (stereo not shown) [compound 72], for which the ED50 in assay [1] is 1 mg/kg; in assay [2] it was 0.8 mg/kg.

With `COCC1CN(c2ccc(OCc3ccccc3)cc2)C(=O)O1` (stereo not shown) [compound 57], the values for the ED50 in assay [1] and in assay [2] were 9 mg/kg and 7.8 mg/kg, respectively.

As for `CCCOCC1CN(c2ccc(OCc3cccc([N+](=O)[O-])c3)cc2)C(=O)O1` (stereo not shown) [compound 70], the figures for the ED50 in assay [1] and in assay [2] were 0.6 mg/kg and 0.8 mg/kg, respectively.

As to `CCCCCCCCC(=O)OCC1CN(c2ccc(OCc3cccc([N+](=O)[O-])c3)cc2)C(=O)O1` (stereo not shown) [compound 42], the results for the ED50 in assay [1] and in assay [2] were 2 mg/kg and 1.25 mg/kg, respectively.

In the case of `N#CCCOc1ccc(N2CC(COC3CCCCC3)OC2=O)cc1` (stereo not shown) [compound 54], the ED50 in assay [1] came to 12.5 mg/kg; in assay [2], 14 mg/kg.

Turning to `CC(=O)OCC1CN(c2ccc(OCC3CCCCC3)cc2)C(=S)O1` (stereo not shown) [compound 115], the ED50 in assay [1] came to 4.8 mg/kg; in assay [2], 3.8 mg/kg.

For `O=C(OCC1CN(c2ccc(OCc3cccc([N+](=O)[O-])c3)cc2)C(=O)O1)C1CCCCC1` (stereo not shown) [compound 41], the ED50 in assay [1] came out at 4.5 mg/kg; in assay [2] it was 6.2 mg/kg.

With `COCC1CN(c2ccc(OCc3ccc(C#N)cc3)cc2)C(=O)O1` (stereo not shown) [compound 159], the ED50 is 4.8 mg/kg in assay [1] and 5.2 mg/kg in assay [2].

For `CC(C)C(=O)OCC1CN(c2ccc(OCCC#N)cc2)C(=O)O1` (stereo not shown) [compound 5], the ED50 in assay [1] came out at 9.5 mg/kg; in assay [2], 4.7 mg/kg.

For `NCC1CN(c2ccc(OCc3ccccc3)cc2)C(=O)O1` (stereo not shown) [compound 80], the ED50 in assay [1] was 25 mg/kg; in assay [2], 20 mg/kg.
